This is an account of results in publication PMC11280343, “Rubus urticifolius Compounds with Antioxidant Activity, and Inhibition Potential against Tyrosinase, Melanin, Hyaluronidase, Elastase, and Collagenase” (Pharmaceuticals, 2024).

Data set [1] deals with NF-κB. In words: NF-κB inhibition assay (LPS-stimulated), THP-1. The class given is cell-based. To be noted: Homo sapiens, read-out: NF-κB Inhibition at 72 h IC50 ± SEM. As to the method: (§1) To determine the anti-inflammatory activity of the samples (at the same concentration as in the viability assay), NF-κB inhibition assay was used, following the protocol carried out by Apaza Ticona et al.. Cells were cultured in 96-well plates (1 × 10^6 cells/well). […] Absorbance was measured at 450 nm using a microplate reader.

The test system of data set [2] is NF-κB. The data set is described as follows: NF-κB inhibition assay (LPS-stimulated), HEK001. The class given is cell-based. Particulars: Homo sapiens, read-out: NF-κB Inhibition at 72 h IC50 ± SEM. As to the method:
as §1

Data set [3] concerns melanin production in HMCB cells. The data set is described as follows: Melanin content assay. The class given is cell-based. Particulars: Homo sapiens, 12 h. The procedure: To determine the anti-melanogenic activity of the samples (at the same concentration as in the viability assay), melanin inhibition assay was used, following the protocol carried out by Apaza Ticona et al.. HMCB cells were cultured in 96-well plates (1 × 10^6 cells/well). […] Absorbance was measured at 405 nm using a microplate reader.

The test system of the next data set is Nrf2. In words: Nrf2 activation assay, THP-1. The class given is cell-based. As to the method: To determine the antioxidant response of the samples (at the same concentration as in the viability assay), Nrf2 activation assay was used, following the protocol carried out by Apaza Ticona et al.. Cells were cultured in 96-well plates (1 × 10^6 cells/well). […] Absorbance was measured at 540 nm using a microplate reader.

The next data set has as its target T1, tyrosinase in HMCB cells (Homo sapiens, UniProt P14679).
T1 construct: endogenous in cells; host or cells: HMCB cells
T1 sequence (P14679 19-529): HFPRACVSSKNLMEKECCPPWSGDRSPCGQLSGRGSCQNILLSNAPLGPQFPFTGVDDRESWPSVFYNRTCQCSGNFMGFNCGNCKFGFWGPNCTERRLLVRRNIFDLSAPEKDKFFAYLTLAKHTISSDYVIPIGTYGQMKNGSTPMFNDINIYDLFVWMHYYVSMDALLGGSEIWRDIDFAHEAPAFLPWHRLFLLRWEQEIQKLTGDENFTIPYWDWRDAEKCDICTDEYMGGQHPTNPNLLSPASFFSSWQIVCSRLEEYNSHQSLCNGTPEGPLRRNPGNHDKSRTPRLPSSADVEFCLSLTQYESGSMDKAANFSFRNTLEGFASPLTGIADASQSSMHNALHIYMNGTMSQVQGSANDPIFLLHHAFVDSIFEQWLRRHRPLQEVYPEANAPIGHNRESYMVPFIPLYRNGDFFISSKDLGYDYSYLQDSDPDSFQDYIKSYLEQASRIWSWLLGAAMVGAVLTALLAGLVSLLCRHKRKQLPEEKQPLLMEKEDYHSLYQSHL
The data set is described as follows: Cellular tyrosinase assay (L-DOPA as substrate). The format is cell-based. The procedure: To determine the anti-tyrosinase activity of the samples (at the same concentration as in the viability assay), tyrosinase inhibition assay was used, following the protocol carried out by Apaza Ticona et al.. HMCB cells were cultured in 96-well plates (1 × 10^6 cells/well). […] Absorbance was measured at 475 nm using a microplate reader.

The nature of data set [4]: NR viability assay, THP-1. The format is cell-based, Homo sapiens. Particulars: human. The procedure: (§2) The HEK001 (Homo sapiens cutaneous keratinocyte, CCL-2404), WS1 (Homo sapiens cutaneous fibroblast, CRL-1502), HMCB (Homo sapiens cutaneous melanoma, CRL-9607), and THP-1 (Homo sapiens peripheral blood monocyte, TIB-202) cell lines used in this study were obtained from the American Type Culture Collection (ATCC, Manassas, VA, USA). Cultivated in a Roswell Park Memorial Institute (RPMI) 1640 medium (RPMI 1640 Merck, Cat. No. R7755, New York, NY, USA) supplemented with 2 mM L-glutamine (≥99% Merck, Cat. No. 56-85-9), 10% fetal bovine serum (FBS Merck, Cat. No. TMS-016, St. Louis, MO, USA), and 10,000 units of penicillin and 10 mg streptomycin/mL (Merck, Cat. No. P4333, St. Louis, MO, USA) in culture flasks, the cells were maintained in an incubator under normoxic conditions (20–21% O2) and a humidified atmosphere (5% CO2 at 37 °C).
(§3) Mother solutions of samples (extracts, fractions, and compounds) were prepared at a concentration of […] using dimethyl sulfoxide (DMSO ≥ 99.9% Merck, Cat. No. 67-68-5, St. Louis, MO, USA) as the solvent. From these mother solutions, dilutions were prepared at concentrations ranging from 100 to 0.20 μg/mL or μM in culture medium containing 0.5% DMSO. Additionally, a negative control group consisting solely of culture medium with 0.5% DMSO was included to assess its potential cytotoxic effect on the cells.
(§4) Cell viability was evaluated using a colorimetric assay in 96-well plates, employing 3-amino-7-dimethylamino-2-methylphenazine hydrochloride salt reagent (NR, Merck, Cat. No. 553-24-2, St. Louis, MO, USA).
(§5) HEK001, WS1, HMCB, and THP-1 cell lines were cultured in 96-well plates at 37 °C with 5% CO2 until > 90% confluency was achieved (1 × 10^6 cells/well). Subsequently, the cultures were treated with sample dilutions (100–0.20 μg/mL or μM) for 72 h at 37 °C with 5% CO2 in phenol red-free RPMI. The supernatant was then discarded and the cells were washed with phosphate-buffered saline (PBS) before being incubated with […] NR (50 μg/mL; 173 μM) for 3 h at 37 °C with 5% CO2. NR labelling was performed after DMSO treatment. After incubation, the labelled sample dilutions were rapidly washed with a fixative solution composed of 1% calcium chloride (CaCl2 Merck, Cat. No. 10043-52-4, St. Louis, MO, USA) and 0.5% formaldehyde solution (≥36.0% in H2O Merck, Cat. No. 50-00-0, St. Louis, MO, USA), then diluted with 100 μL of the NR extraction solution. Finally, the plates were read at 540 nm using a microplate reader (Anthos 2020, version 2.0.5, Biochrom Ltd., Cambridge, UK).

The nature of the next data set: NR viability assay, HMCB. Particulars: human. The format is cell-based, Homo sapiens. As to the method:
as §2, §3, §4, §5

Where [5] appears, read: HMCB cells, read-out: Inhibitory activity of melanin production IC50.
Setting [6] is: Homo sapiens, THP-1, 72 h; read-out: Activation of Nrf2 production EC50.
The mark [7] stands for this setting: HMCB cells, L-DOPA as substrate, 12 h, read-out: Tyrosinase inhibitory activity IC50.

Molecules are shown by their SMILES. Read-outs that look alike come from different tables or passages of the source.

In the case of `CNC(=O)c1ccccc1NC(=O)/C=C/c1ccc(OC)c(OC)c1` [Compound 1, (E)-2-(3-(3,4-dimethoxyphenyl)acrylamido)-N-methylbenzamide], the IC50 in the data set on NF-κB [1] (THP-1, LPS-stimulated, 72 h) is 12.7 ± 0.34 µM; with NF-κB [2] (HEK001, LPS-stimulated, 72 h), 11.2 ± 0.23 µM; in data set [3] (setting [5]), 22.2 µM; on tyrosinase in HMCB cells (setting [7]), 14.2 µM. For the same molecule, the EC50 with Nrf2 (setting [6]) amounted to 0.116 µM. Moreover, the CC50 at 72 h amounted to 80 µM in data set [4] (THP-1 cells (peripheral blood monocytes), THP-1, NR assay, 72 h, read-out: Viability CC50) and 69.8 µM in the data set “NR viability assay, HMCB” (HMCB cells (cutaneous melanoma), HMCB, NR assay, 72 h, read-out: Viability CC50).

Take `O=C(O)c1cc(O)c2ccccc2n1` [Compound 2, 4-hydroxyquinoline-2-carboxylic acid]: the IC50 in the data set with NF-κB [1] (THP-1, LPS-stimulated, 72 h) was found to be 37.2 ± 0.72 µM; with NF-κB [2] (HEK001, LPS-stimulated, 72 h), 35.42 ± 0.12 µM; in data set [3] (setting [5]) it was 44.7 µM; on tyrosinase in HMCB cells (setting [7]), 33.8 µM. Besides, the EC50 in the data set with Nrf2 (setting [6]) is 0.49 µM. The CC50 at 72 h in data set [4] (Viability CC50) stood at 100 µM; in “NR viability assay, HMCB”, 87.7 µM.

Turning to `N#C/C(=C\c1ccc(O)cc1)C(=O)O` [Compound 3, (E)-2-cyano-3-(4-hydroxyphenyl)acrylic acid], the IC50 with NF-κB [1] (THP-1, 72 h) was found to be 58.8 ± 0.86 µM; with NF-κB [2] (HEK001, 72 h), 55.97 ± 0.32 µM; in data set [3] (HMCB, read-out: Inhibitory activity of melanin production IC50, HMCB cells, 12 h), 71.1 µM; at tyrosinase in HMCB cells it was 51.5 µM. For the same molecule, the EC50 with Nrf2 (Homo sapiens, THP-1, 72 h, read-out: Activation of Nrf2 production EC50) came to 0.707 µM. The CC50 at 72 h in data set [4] (THP-1, NR assay, 72 h, read-out: Viability CC50) came to 141 µM; in the data set “NR viability assay, HMCB” (HMCB, NR assay, 72 h, read-out: Viability CC50) it was 98.4 µM.
